According to patent publication US10221179B2, “Substituted pyrazoloquinazolinones and pyrroloquinazolinones as allosteric modulators of group II metabotropic glutamate receptors” (DOMAIN THERAPEUTICS, priority 2014, dated 2019):
Where two headings read alike, the source gives them in different places.

Key:
[1] = target: T1, human mGluR2 (hmGluR2) (Homo sapiens, UniProt Q14416); test: Ca++ functional assay, human mGluR2 transiently over-expressed in HEK-293 cells (agonist and negative allosteric modulator modes); type: cell-based; conditions: glutamate at EC80, intracellular calcium (Fluo4AM)
T1 construct: expressed in transfected cells; host or cells: HEK-293 cells, transient co-transfection by electroporation
T1 sequence (Q14416 19-872): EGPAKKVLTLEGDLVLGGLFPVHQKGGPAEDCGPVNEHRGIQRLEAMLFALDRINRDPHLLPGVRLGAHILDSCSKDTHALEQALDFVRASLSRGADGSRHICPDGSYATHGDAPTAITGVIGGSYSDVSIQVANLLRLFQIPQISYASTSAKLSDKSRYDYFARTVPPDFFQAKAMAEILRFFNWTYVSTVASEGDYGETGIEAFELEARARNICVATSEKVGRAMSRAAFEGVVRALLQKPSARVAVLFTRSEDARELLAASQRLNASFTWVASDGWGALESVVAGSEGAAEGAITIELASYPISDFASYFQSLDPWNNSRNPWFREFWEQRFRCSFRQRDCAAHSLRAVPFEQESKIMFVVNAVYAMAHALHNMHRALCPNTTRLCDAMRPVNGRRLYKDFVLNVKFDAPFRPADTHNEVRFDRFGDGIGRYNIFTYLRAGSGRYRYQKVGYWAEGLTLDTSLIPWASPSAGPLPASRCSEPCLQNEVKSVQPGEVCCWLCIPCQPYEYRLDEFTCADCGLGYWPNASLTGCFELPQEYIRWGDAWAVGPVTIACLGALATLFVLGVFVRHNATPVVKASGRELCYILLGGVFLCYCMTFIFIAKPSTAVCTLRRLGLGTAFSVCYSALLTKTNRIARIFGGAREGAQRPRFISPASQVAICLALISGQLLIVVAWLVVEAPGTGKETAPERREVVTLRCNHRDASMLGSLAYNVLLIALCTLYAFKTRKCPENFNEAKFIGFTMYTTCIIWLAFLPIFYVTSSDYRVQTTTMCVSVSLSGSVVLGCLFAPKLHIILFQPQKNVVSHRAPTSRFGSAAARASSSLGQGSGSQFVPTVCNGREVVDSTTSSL
Experimental: (§1) Example 127: Human mGluR2 and mGluR3 Evaluation Using Ca^++ Functional Assay
Examples of the present invention were tested successively for their agonist and negative allosteric modulator activities on human mGluR2 (hmGluR2) and mGluR3 (hmGluR3) transiently over-expressed in HEK-293 cells.
Cell Culture and Transfection
HEK-293 cells are maintained in Modified Eagle's Medium supplemented with 10% Foetal Calf Serum, 1% Penicillin/Streptomycin and 1% non-essential amino acids at 37° C./5% CO2.
Cells are co-transfected by electroporation with four DNA plasmids encoding hmGluR2 or hmGluR3, a chimeric G protein allowing redirection of the activation signal to intracellular calcium pathway (Brabet I et al., Neuropharmacology 37(8), 1043-51, 1998), and two glutamate transporters minimizing receptor desensitization by endogenous glutamate. After transfection, cells are cultured for 24 h at 37° C./5% CO2.
Calcium Assay IC50 Determination
(§2) Receptor activity is detected by changes in intracellular calcium measured using the fluorescent Ca^2+ sensitive dye, Fluo4AM (Molecular Probes).
On the day of the assay, culture medium is aspirated and replaced during 3 hours by medium without serum supplemented with 1% Glutamax, 1% Penicillin/Streptomycin and 1% non-essential amino acids. Then, cells are washed with freshly prepared buffer B (HBSS 1×(PAA), Hepes 20 mM, MgSO4-7H2O 1 mM, Na2CO3 3.3 mM, CaCl2-2H2O 1.3 mM, 0.1% BSA, Probenecid 2.5 mM) and loaded at 37° C. in 5% CO2 for 1.5 hours with buffer B containing 1 μM Fluo4AM, 0.1 mg/mL Pluronic Acid, 7 μg/mL Glutamate Pyruvate Transaminase and 2 mM sodium pyruvate. Afterwards cells are washed twice with buffer B. Then cells are detached using StemPro Accutase (Fischer Scientific), resuspended in buffer B and seeded in 384 well plate at a density of 30,000 cells per well. Addition of compounds and intracellular Ca^2+ measurements (excitation 485 nm, emission 525 nm) are performed by the fluorescence microplate reader FLIPRTetra (Molecular Devices).
Agonist and negative allosteric modulator activities of compounds are consecutively evaluated on the same cell plate. […] Then, cells are stimulated by an EC80 glutamate concentration and fluorescence is recorded for additional 3 minutes. EC80 glutamate concentration is the concentration giving 80% of the maximal glutamate response. Agonist or negative allosteric modulator activity(ies) are evaluated in comparison to basal signals evoked by buffer B or EC80 glutamate alone, respectively.
For IC50 determination, a dose-response test is performed using 20 concentrations (ranging over 6 logs) of each compound. Dose-response curves are fitted using the sigmoidal dose-response (variable slope) analysis in GraphPad Prism program (Graph Pad Inc) and IC50 of negative allosteric modulator activity is calculated. Dose-response experiments are performed in duplicate, two times independently.

[2] = target: T2, human mGluR3 (hmGluR3) (Homo sapiens, UniProt Q14832); test: Ca++ functional assay, human mGluR3 transiently over-expressed in HEK-293 cells (agonist and negative allosteric modulator modes); type: cell-based; conditions: glutamate at EC80, intracellular calcium (Fluo4AM)
T2 construct: expressed in transfected cells; host or cells: HEK-293 cells, transient co-transfection by electroporation
T2 sequence (Q14832 23-879): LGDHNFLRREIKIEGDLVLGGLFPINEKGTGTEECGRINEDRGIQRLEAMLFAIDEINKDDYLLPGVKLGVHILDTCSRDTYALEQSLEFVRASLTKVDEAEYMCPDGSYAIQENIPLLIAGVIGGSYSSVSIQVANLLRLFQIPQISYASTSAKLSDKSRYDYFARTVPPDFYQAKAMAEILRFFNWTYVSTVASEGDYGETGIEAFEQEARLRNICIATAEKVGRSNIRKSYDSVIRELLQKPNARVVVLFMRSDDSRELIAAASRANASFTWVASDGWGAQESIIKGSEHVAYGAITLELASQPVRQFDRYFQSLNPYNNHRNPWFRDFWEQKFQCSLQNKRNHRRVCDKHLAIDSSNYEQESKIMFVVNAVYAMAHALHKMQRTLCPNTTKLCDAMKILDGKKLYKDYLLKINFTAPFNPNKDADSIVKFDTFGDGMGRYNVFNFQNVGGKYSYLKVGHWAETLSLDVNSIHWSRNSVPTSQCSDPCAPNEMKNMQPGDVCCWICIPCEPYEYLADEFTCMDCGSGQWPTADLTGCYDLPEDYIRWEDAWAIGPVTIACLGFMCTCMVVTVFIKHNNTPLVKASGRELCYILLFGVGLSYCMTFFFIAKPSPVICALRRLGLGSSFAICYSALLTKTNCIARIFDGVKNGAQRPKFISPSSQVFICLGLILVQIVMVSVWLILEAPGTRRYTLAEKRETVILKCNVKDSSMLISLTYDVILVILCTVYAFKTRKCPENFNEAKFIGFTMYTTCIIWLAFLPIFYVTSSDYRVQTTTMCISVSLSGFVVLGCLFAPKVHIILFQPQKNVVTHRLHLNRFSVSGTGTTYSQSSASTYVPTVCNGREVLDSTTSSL
Experimental: as §1
Examples of the present invention were tested successively for their agonist and negative allosteric modulator activities on human mGluR2 (hmGluR2) and mGluR3 (hmGluR3) transiently over-expressed in HEK-293 cells. Compounds exert agonist activity if, by themselves in absence of glutamate, they are able to activate hmGluR2 or hmGluR3; and they exert negative allosteric modulator activity if they decrease the action of glutamate (which is employed at its EC80 concentration).
Cell Culture and Transfection […]
as §2
On the day of the assay, culture medium is aspirated and replaced during 3 hours by medium without serum supplemented with 1% Glutamax, 1% Penicillin/Streptomycin and 1% non-essential amino acids. […] Addition of compounds and intracellular Ca^2+ measurements (excitation 485 nm, emission 525 nm) are performed by the fluorescence microplate reader FLIPRTetra (Molecular Devices).
Agonist and negative allosteric modulator activities of compounds are consecutively evaluated on the same cell plate. […] Then, cells are stimulated by an EC80 glutamate concentration and fluorescence is recorded for additional 3 minutes. […]

[3] = read-out: IC50 for human mGluR2 (negative allosteric modulator activity)
[4] = read-out: hmGluR2 negative allosteric modulator activity IC50

| IC50 [1, 3] | IC50 [1, 4] | IC50 [2] | melting point | Compound |
| --- | --- | --- | --- | --- |
| < 100 nM | < 1000 nM | > 1000 nM | – | Cn1c(=O)c2ccccc2n2nc(-c3ccnc(Cl)c3)cc12 [Example 1, 2-(2-Chloro-pyridin-4-yl)-4-methyl-4H-pyrazolo[1,5-a]quinazolin-5-one] |
| < 100 nM | < 1000 nM | > 1000 nM | – | C=Cc1cc(-c2cc3n(C)c(=O)c4ccccc4n3n2)ccn1 [Example 9, 4-Methyl-2-(2-vinyl-pyridin-4-yl)-4H-pyrazolo[1,5-a]quinazolin-5-one] |
| – | < 1000 nM | – | > 250 °C | CNC(=O)c1ccc2c(=O)n(C)c3cc(-c4ccnc(C(F)(F)F)c4)nn3c2c1 [Example 78, 4-Methyl-5-oxo-2-(2-trifluoromethyl-pyridin-4-yl)-4,5-dihydro-pyrazolo[1,5-a]quinazoline-8-carboxylic Acid Methylamide] |
| – | < 1000 nM | – | 240 to 245 °C | CCN(CC)C(=O)c1ccc2c(=O)n(C)c3cc(-c4ccnc(C(F)(F)F)c4)nn3c2c1 [Example 80, 4-Methyl-5-oxo-2-(2-trifluoromethyl-pyridin-4-yl)-4,5-dihydro-pyrazolo[1,5-a]quinazoline-8-carboxylic Acid Diethylamide] |
| – | < 1000 nM | – | > 250 °C | Cn1c(=O)c2ccc(C(=O)N3CCOCC3)cc2n2nc(-c3ccnc(C(F)(F)F)c3)cc12 [Example 81, 4-Methyl-8-(morpholine-4-carbonyl)-2-(2-trifluoromethyl-pyridin-4-yl)-4H-pyrazolo[1,5-a]quinazolin-5-one] |
| – | < 1000 nM | – | > 250 °C | Cn1c(=O)c2ccc(C(=O)N3CCCC3)cc2n2nc(-c3ccnc(C(F)(F)F)c3)cc12 [Example 82, 4-Methyl-8-(pyrrolidine-1-carbonyl)-2-(2-trifluoromethyl-pyridin-4-yl)-4H-pyrazolo[1,5-a]quinazolin-5-one] |
| – | < 1000 nM | – | > 250 °C | Cn1c(=O)c2c(F)cccc2n2nc(-c3ccnc(C(F)(F)F)c3)cc12 [Example 85, 6-Fluoro-4-methyl-2-(2-trifluoromethyl-pyridin-4-yl)-4H-pyrazolo[1,5-a]quinazolin-5-one] |
| – | < 1000 nM | – | > 250 °C | COc1cc2c(=O)n(C)c3cc(-c4ccnc(C(F)(F)F)c4)nn3c2cc1OC [Example 87, 7,8-Dimethoxy-4-methyl-2-(2-trifluoromethyl-pyridin-4-yl)-4H-pyrazolo[1,5-a]quinazolin-5-one] |
| – | < 1000 nM | – | > 206 °C | Cn1c(=O)c2cc(F)c(F)cc2n2nc(-c3ccnc(C(F)(F)F)c3)cc12 [Example 88, 7,8-Difluoro-4-methyl-2-(2-trifluoromethyl-pyridin-4-yl)-4H-pyrazolo[1,5-a]quinazolin-5-one] |
| – | < 1000 nM | – | 220 to 230 °C | COc1cc2c(=O)n(C)c3cc(-c4ccnc(C(F)(F)F)c4)nn3c2cc1F [Example 89, 8-Fluoro-7-methoxy-4-methyl-2-(2-trifluoromethyl-pyridin-4-yl)-4H-pyrazolo[1,5-a]quinazolin-5-one] |
| – | < 1000 nM | – | > 250 °C | COc1cc2c(=O)n(C)c3cc(-c4ccnc(C(F)(F)F)c4)nn3c2cc1N1CCC(O)CC1 [Example 90, 8-(4-Hydroxy-piperidin-1-yl)-7-methoxy-4-methyl-2-(2-trifluoromethyl-pyridin-4-yl)-4H-pyrazolo[1,5-a]quinazolin-5-one] |
| – | < 1000 nM | – | > 250 °C | CN(C)c1cc2c(cc1F)c(=O)n(C)c1cc(-c3ccnc(C(F)(F)F)c3)nn21 [Example 91, 8-Dimethylamino-7-fluoro-4-methyl-2-(2-trifluoromethyl-pyridin-4-yl)-4H-pyrazolo[1,5-a]quinazolin-5-one] |
| – | < 1000 nM | – | 172 to 180 °C | COc1ccc2c(c1)c(=O)n(C)c1cc(-c3ccnc(OCC(F)(F)F)c3)nn21 [Example 102, 7-Methoxy-4-methyl-2-[2-(2,2,2-trifluoro-ethoxy)-pyridin-4-yl]-4H-pyrazolo[1,5-a]quinazolin-5-one] |
| – | < 1000 nM | – | > 250 °C | Cn1c(=O)c2ccc(C(=O)N3CC(O)C3)cc2n2nc(-c3ccnc(C(F)(F)F)c3)cc12 [Example 110, 8-(3-Hydroxy-azetidine-1-carbonyl)-4-methyl-2-(2-trifluoromethyl-pyridin-4-yl)-4H-pyrazolo[1,5-a]quinazolin-5-one] |
| – | < 1000 nM | – | 221 to 233 °C | Cn1c(=O)c2ccc(N3CCC(O)CC3)cc2n2nc(-c3ccnc(C4CC4)c3)cc12 [Example 113, 2-(2-Cyclopropyl-pyridin-4-yl)-8-(4-hydroxy-piperidin-1-yl)-4-methyl-4H-pyrazolo[1,5-a]quinazolin-5-one] |
| – | < 1000 nM | – | 220 to 226 °C | Cn1c(=O)c2ccc(F)cc2n2nc(-c3ccnc(C(F)F)c3)cc12 [Example 114, 2-(2-Difluoromethyl-pyridin-4-yl)-8-fluoro-4-methyl-4H-pyrazolo[1,5-a]quinazolin-5-one] |
| – | < 1000 nM | – | > 250 °C | Cn1c(=O)c2ccc(N3CCC(O)CC3)cc2n2nc(-c3ccnc(C(F)F)c3)cc12 [Example 115, 2-(2-Difluoromethyl-pyridin-4-yl)-8-(4-hydroxy-piperidin-1-yl)-4-methyl-4H-pyrazolo[1,5-a]quinazolin-5-one] |
| – | < 1000 nM | – | 210 to 220 °C | Cn1c(=O)c2ccc(F)cc2n2nc(-c3ccnc(C4CCC4)c3)cc12 [Example 116, 2-(2-Cyclobutyl-pyridin-4-yl)-8-fluoro-4-methyl-4H-pyrazolo[1,5-a]quinazolin-5-one] |
| – | < 1000 nM | – | > 250 °C | Cn1c(=O)c2cc(F)c(N3CC(O)C3)cc2n2nc(-c3ccnc(C(F)(F)F)c3)cc12 [Example 119, 7-Fluoro-8-(3-hydroxy-azetidin-1-yl)-4-methyl-2-(2-trifluoromethyl-pyridin-4-yl)-4H-pyrazolo[1,5-a]quinazolin-5-one] |
| – | < 1000 nM | – | > 250 °C | Cn1c(=O)c2cc(F)c(OC3COC3)cc2n2nc(-c3ccnc(C(F)(F)F)c3)cc12 [Example 120, 7-Fluoro-4-methyl-8-(oxetan-3-yloxy)-2-(2-trifluoromethyl-pyridin-4-yl)-4H-pyrazolo[1,5-a]quinazolin-5-one] |
| – | < 1000 nM | – | > 250 °C | Cn1c(=O)c2cc(F)c(NCCC#N)cc2n2nc(-c3ccnc(C(F)(F)F)c3)cc12 [Example 121, 3-[7-Fluoro-4-methyl-5-oxo-2-(2-trifluoromethyl-pyridin-4-yl)-4,5-dihydro-pyrazolo[1,5-a]quinazolin-8-ylamino]-propionitrile] |
| – | < 1000 nM | – | > 250 °C | Cn1c(=O)c2cc(F)c(N3CCCC3CO)cc2n2nc(-c3ccnc(C(F)(F)F)c3)cc12 (stereo not drawn) [Example 122, 7-Fluoro-8-(2-hydroxymethyl-pyrrolidin-1-yl)-4-methyl-2-(2-trifluoromethyl-pyridin-4-yl)-4H-pyrazolo[1,5-a]quinazolin-5-one] |
| – | < 1000 nM | – | > 250 °C | CC1CN(c2ccc3c(=O)n(C)c4cc(-c5ccnc(C(F)(F)F)c5)nn4c3c2)CC(C)O1 (stereo not drawn) [Example 125, 8-(2,6-Dimethyl-morpholin-4-yl)-4-methyl-2-(2-trifluoromethyl-pyridin-4-yl)-4H-pyrazolo[1,5-a]quinazolin-5-one] |
